Reference: PubChem BioAssay (NCI)
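Cells were grown in 96-well plates and exposed to each compound for 48 hours at five concentrations; endpoints were interpolated linearly between bracketing concentrations, or set to the highest concentration if not reached. TGI: total growth inhibition.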

Key:
Assay in all cases: NCI anticancer screen, dose series, 48 h
A498 renal = tested on: A498 renal
A549 NSCLC = tested on: A549 NSCLC
ACHN renal = tested on: ACHN renal
BT-549 breast = tested on: BT-549 breast
EKVX NSCLC = tested on: EKVX NSCLC
HL-60(TB) leukemia = tested on: HL-60(TB) leukemia
HOP-92 NSCLC = tested on: HOP-92 NSCLC
LOX IMVI melanoma = tested on: LOX IMVI melanoma
MOLT-4 leukemia = tested on: MOLT-4 leukemia
NCI-H23 lung = tested on: NCI-H23 lung
OVCAR-8 ovarian = tested on: OVCAR-8 ovarian
RXF 393 renal = tested on: RXF 393 renal
SF-539 CNS = tested on: SF-539 CNS
SK-MEL-5 melanoma = tested on: SK-MEL-5 melanoma
SN12C renal = tested on: SN12C renal
SNB-75 CNS = tested on: SNB-75 CNS
TK-10 renal = tested on: TK-10 renal
UACC-257 melanoma = tested on: UACC-257 melanoma
UACC-62 melanoma = tested on: UACC-62 melanoma

Compound	TGI (A498 renal) [µM]	TGI (A549 NSCLC) [µM]	TGI (ACHN renal) [µM]	TGI (BT-549 breast) [µM]	TGI (EKVX NSCLC) [µM]	TGI (HL-60(TB) leukemia) [µM]	TGI (HOP-92 NSCLC) [µM]	TGI (LOX IMVI melanoma) [µM]	TGI (MOLT-4 leukemia) [µM]	TGI (NCI-H23 lung) [µM]	TGI (OVCAR-8 ovarian) [µM]	TGI (RXF 393 renal) [µM]	TGI (SF-539 CNS) [µM]	TGI (SK-MEL-5 melanoma) [µM]	TGI (SN12C renal) [µM]	TGI (SNB-75 CNS) [µM]	TGI (TK-10 renal) [µM]	TGI (UACC-257 melanoma) [µM]	TGI (UACC-62 melanoma) [µM]
CCCCCCCCCCCCCCCCCCNc1ccn(C2OC(CO)C(O)C2O)c(=O)n1 (centres undefined)	> 100	> 100	> 100	> 100	> 100	13.6	> 100	> 100	> 49.7	> 100	> 100	> 100	> 100	> 100	> 100	> 100	> 100	> 100	> 100
CC1=C(O)C(=O)C[C@]2(C)[C@H]3CC=C4[C@@H]5CC(C)(C)CC[C@@H]5C(=O)[C@H](O)[C@@]4(C)[C@]3(C)CC[C@@H]12	> 50	> 50	> 50	> 50	> 50	> 50	28.5		> 50	> 50	> 50	37.9	> 50	> 50	> 50	> 50	> 50	> 50	> 50
C=CCOC1=C(OCC=C)C(C2COC(C)(C)O2)OC1=O (centres undefined)	> 100	> 100	> 100	> 100	> 100	> 100	83.3	> 100	> 100	> 100	> 100	> 100	> 100	> 100	> 100	> 100	> 100	> 100	> 100
O=C1/C(=C/c2ccc3c(c2)OCO3)CCC1CN1CCOCC1 (centres undefined)	23.9	43.3	24	42.1	34.7	3.99	29.3	7.84	9.46	25.1	21.4	24.7	28.1	20.4	12	28.7	21.6	22.6	20.5
O=c1c2c(c1=O)C1(SCCCS1)c1cc(Cl)ccc1O2	> 100	> 100	> 100	> 100	> 100	> 100	> 100	> 100	> 100	> 100	> 100	> 100	> 100	> 100	> 100	> 100	> 100	> 100	> 100
C=CCOc1ccc(/C(N=Nc2ccccc2)=N/NC(=O)c2ccccc2)cc1OC	> 100	> 100	> 100	> 100	> 100	> 100	> 100	> 100	> 100	> 100	> 100	> 100	> 100	> 100	> 100	> 100	> 100	> 100	> 100
CCOC(=O)c1cc(C2CCN(CC(C)CC)C2=S)c(-c2cc(C)no2)[nH]1 (centres undefined)	> 100	> 100		> 100	> 100	> 100	> 100	> 100	> 100	> 100	> 100	> 100	> 100	> 100	> 100	> 100		> 100	> 100
CC(=O)O[C@@H]1[C@H]2[C@@H](OC(=O)c3ccccc3)[C@@H](C)C[C@]2(O)[C@H](OC(C)=O)[C@@]2(C)[C@@H]3CC(C)(C)C(=O)[C@]3(OC(C)=O)C[C@@]12C	> 25		> 25	> 25	> 25	> 25	> 25	> 25	> 25	> 25	> 25	> 25	> 25	> 25	> 25	> 25	> 25	> 25	> 25
C/C(=N\Nc1ccccc1Br)c1cccc(/C(C)=N/Nc2ccccc2Br)n1	> 100	> 100	> 100	> 100	> 100	> 100	> 100	> 100	> 100	> 100	> 100	42.4	> 100	> 100	> 100	36.8	> 100	> 100	
CCOP1(=O)C=C(Sc2ccc([N+](=O)[O-])cc2[N+](=O)[O-])C(C)(C)O1 (centres undefined)	44.5	44.3	28	32.2	18.8	77.3	25.3	> 34.9	> 100	46.3	35.4	31.8	27.5	23	41	50.3	31.3	25	26.4
COc1ccc(-c2cc(-c3ccc(Nc4ccnc5cc(Cl)ccc45)cc3)nc(N)c2C#N)cc1	> 100	> 100	> 100	> 100	> 100	> 100	> 100	> 100	> 100	> 100	> 100	> 100	> 100			> 100	> 100		> 100
OCC1OC(NCCNCCNC2OC(CO)C(O)C(O)C2O)C(O)C(O)C1O (centres undefined)	> 100	> 100	> 100	> 100	> 100	> 100	> 100	> 100	> 100	> 100	> 100	> 100	> 100	> 100	> 100	> 100	> 100	> 100	> 100
CCCc1c(O)c(=O)c2c(OC)cc(OC)c3c4c(OC)cc(OC)c5c(=O)c(O)c(CCC)c(c1c23)c54	11.9	13.1	3.58	10.1	6.66	4.64	2.55	1.86	1.23	3.16	3.38	28	11.3	1.91	22.3	3.53	15.8	7.06	1.88
